Experimental data: ChEMBL document CHEMBL5678810
Calls of active or inactive are those of the source. No cut-off for these calls is given here.

How the values were obtained:
[1] = target: Cyclin-dependent kinase 11B (Homo sapiens) (UniProt P21127); assay: Inhibition of T7 bacteriophage fused human CDK11 at 10 uM by KINOMEscan analysis relative to control
[2] = target: Serine/threonine-protein kinase 36 (Homo sapiens) (UniProt Q9NRP7); assay: Inhibition of T7 bacteriophage fused human STK36 at 10 uM by KINOMEscan analysis relative to control
[3] = tested on: Mast/stem cell growth factor receptor Kit (Homo sapiens), P10721 [V559D,T670I]; assay: Inhibition of T7 bacteriophage fused human KIT V559D/T670I mutant at 10 uM by KINOMEscan analysis relative to control; values are per cent of control
[4] = tested on: Tyrosine-protein kinase ABL1 (Homo sapiens), P00519 [Y253F]; assay: Inhibition of T7 bacteriophage fused human phosphorylated ABL1 Y253F mutant at 10 uM by KINOMEscan analysis relative to control
[5] = target: Mitogen-activated protein kinase kinase kinase 3 (Homo sapiens) (UniProt Q99759); assay: Inhibition of T7 bacteriophage fused human MAP3K3 at 10 uM by KINOMEscan analysis relative to control
[6] = target: Ephrin type-A receptor 1 (Homo sapiens) (UniProt P21709); assay: Inhibition of T7 bacteriophage fused human EPHA1 at 10 uM by KINOMEscan analysis relative to control
[7] = tested on: Tyrosine-protein kinase ABL1 (Homo sapiens), P00519 [F317I]; assay: Inhibition of T7 bacteriophage fused human phosphorylated ABL1 F317I mutant at 10 uM by KINOMEscan analysis relative to control
[8] = target: Discoidin domain-containing receptor 2 (Homo sapiens) (UniProt Q16832); assay: Inhibition of T7 bacteriophage fused human DDR2 at 10 uM by KINOMEscan analysis relative to control
[9] = target: Leucine-rich repeat serine/threonine-protein kinase 2 (Homo sapiens) (UniProt Q5S007); assay: Inhibition of wildtype GFP-tagged LRRK2 phosphorylation at Ser910 residue (unknown origin) transfected in HEK293 cells upto 3 uM incubated for 90 mins by immunoblot analysis; format: cell-based
Leucine-rich repeat serine/threonine-protein kinase 2 (Homo sapiens), sequence (Q5S007 whole entry): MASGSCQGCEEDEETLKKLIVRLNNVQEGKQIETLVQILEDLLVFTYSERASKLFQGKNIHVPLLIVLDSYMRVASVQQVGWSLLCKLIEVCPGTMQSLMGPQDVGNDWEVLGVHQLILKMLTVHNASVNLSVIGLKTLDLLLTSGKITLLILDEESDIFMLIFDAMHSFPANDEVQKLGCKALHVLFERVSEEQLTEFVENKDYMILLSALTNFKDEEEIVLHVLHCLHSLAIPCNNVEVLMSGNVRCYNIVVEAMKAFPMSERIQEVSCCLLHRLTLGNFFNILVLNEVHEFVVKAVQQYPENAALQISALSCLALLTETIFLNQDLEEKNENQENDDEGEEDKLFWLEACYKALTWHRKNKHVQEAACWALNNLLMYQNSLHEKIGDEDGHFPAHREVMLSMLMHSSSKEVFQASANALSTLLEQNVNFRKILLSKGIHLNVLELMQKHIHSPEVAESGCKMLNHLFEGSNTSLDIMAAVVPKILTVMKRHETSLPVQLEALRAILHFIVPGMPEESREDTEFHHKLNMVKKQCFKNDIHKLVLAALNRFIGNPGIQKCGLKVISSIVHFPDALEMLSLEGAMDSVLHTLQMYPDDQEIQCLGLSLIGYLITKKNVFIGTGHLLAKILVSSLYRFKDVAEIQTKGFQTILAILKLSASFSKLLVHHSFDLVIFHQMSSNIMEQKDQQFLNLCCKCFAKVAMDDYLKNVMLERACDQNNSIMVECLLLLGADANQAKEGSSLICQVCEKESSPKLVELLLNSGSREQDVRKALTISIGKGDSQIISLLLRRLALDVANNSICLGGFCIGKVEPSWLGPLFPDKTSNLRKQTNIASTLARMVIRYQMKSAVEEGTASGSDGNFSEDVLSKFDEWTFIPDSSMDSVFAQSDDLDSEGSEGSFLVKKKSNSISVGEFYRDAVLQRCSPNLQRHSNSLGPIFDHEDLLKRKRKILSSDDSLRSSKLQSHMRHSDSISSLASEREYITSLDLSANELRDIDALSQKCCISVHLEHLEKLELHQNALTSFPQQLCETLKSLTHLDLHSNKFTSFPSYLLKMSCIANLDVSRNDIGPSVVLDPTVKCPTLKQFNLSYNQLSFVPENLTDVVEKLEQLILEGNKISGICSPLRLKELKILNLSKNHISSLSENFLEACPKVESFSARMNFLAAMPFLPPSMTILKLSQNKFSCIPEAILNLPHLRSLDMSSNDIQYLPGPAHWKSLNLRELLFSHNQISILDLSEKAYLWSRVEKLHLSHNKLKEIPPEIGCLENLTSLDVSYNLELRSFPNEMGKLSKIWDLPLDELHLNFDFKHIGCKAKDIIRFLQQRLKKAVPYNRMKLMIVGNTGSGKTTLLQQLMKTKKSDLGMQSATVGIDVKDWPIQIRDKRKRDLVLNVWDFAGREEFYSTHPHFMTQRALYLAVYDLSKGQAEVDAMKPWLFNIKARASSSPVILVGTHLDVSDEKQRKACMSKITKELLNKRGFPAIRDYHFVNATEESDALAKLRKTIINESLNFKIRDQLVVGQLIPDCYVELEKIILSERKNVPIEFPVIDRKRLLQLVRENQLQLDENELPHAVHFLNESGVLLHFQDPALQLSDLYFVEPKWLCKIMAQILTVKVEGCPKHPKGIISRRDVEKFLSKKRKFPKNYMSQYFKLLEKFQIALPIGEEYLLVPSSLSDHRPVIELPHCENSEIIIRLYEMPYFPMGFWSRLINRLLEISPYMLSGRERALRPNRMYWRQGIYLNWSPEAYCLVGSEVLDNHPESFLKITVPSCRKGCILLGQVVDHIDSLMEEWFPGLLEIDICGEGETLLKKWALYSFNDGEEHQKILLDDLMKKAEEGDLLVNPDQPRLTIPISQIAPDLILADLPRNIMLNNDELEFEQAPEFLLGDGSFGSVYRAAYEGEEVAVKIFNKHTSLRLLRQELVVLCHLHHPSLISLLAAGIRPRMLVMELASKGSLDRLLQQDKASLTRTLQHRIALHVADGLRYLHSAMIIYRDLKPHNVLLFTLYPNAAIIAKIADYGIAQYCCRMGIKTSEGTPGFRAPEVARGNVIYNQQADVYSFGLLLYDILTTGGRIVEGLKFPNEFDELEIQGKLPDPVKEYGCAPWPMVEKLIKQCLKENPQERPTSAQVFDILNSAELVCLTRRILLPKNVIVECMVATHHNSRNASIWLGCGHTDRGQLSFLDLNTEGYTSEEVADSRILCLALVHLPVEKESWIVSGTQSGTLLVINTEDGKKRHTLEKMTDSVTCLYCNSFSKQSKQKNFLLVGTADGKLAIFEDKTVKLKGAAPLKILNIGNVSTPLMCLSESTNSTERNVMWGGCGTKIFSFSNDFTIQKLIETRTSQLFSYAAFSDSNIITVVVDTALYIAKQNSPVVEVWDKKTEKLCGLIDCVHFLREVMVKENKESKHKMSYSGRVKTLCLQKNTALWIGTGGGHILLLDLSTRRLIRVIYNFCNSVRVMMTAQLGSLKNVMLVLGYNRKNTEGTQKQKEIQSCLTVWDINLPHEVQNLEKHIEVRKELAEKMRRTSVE

Serine/threonine-protein kinase 36 (Homo sapiens), sequence (Q9NRP7 whole entry, the tested form may be a part): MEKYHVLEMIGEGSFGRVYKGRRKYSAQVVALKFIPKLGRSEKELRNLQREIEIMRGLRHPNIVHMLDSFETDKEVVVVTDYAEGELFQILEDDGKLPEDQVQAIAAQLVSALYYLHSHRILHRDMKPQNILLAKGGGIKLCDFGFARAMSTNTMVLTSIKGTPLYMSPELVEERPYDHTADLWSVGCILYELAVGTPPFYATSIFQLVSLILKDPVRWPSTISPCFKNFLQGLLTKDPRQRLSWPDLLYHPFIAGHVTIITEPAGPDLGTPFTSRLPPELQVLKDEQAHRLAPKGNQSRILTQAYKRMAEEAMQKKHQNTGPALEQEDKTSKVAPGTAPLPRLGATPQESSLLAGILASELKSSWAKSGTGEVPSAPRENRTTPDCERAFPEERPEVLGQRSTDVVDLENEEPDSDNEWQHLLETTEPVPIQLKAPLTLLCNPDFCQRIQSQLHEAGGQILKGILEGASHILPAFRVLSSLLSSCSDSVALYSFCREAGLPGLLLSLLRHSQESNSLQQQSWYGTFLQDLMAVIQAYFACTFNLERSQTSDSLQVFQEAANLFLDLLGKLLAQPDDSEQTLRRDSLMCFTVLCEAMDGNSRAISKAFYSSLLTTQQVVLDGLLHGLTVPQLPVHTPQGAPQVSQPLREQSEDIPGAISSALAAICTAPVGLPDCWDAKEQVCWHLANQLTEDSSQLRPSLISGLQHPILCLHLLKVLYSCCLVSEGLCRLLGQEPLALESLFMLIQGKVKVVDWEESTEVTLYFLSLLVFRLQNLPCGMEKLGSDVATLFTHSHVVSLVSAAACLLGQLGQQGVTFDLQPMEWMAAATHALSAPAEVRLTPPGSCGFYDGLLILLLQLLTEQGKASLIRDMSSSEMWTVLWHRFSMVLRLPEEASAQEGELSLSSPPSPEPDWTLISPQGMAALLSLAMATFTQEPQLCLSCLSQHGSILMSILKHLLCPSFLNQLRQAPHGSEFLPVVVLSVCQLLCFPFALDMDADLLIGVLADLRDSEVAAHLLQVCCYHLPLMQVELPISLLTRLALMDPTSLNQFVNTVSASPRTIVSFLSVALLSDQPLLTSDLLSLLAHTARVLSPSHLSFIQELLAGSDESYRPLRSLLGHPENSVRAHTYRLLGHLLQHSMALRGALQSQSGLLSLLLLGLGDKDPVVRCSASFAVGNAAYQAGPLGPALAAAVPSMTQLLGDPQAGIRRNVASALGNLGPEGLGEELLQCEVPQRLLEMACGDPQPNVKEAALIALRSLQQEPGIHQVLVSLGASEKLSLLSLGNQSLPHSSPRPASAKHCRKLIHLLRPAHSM
Mitogen-activated protein kinase kinase kinase 3 (Homo sapiens), sequence (Q99759 whole entry, the tested form may be a part): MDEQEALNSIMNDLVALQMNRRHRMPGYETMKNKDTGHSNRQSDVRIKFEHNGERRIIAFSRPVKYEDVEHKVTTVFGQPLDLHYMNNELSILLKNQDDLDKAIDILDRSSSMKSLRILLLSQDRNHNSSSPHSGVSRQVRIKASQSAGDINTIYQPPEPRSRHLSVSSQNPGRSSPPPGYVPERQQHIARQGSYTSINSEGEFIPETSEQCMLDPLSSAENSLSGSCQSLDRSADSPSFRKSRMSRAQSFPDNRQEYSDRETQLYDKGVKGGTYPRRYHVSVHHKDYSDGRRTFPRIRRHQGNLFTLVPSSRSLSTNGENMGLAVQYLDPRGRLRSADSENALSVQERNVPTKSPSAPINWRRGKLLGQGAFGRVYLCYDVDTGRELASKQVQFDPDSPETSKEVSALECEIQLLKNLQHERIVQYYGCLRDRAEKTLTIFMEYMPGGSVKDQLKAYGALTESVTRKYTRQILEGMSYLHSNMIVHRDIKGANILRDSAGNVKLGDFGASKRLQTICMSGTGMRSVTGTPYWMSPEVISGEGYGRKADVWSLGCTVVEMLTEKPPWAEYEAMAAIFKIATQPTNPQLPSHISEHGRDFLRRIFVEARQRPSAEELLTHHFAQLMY

SMILES: COc1cc(N2CCC(N3CCN(C)CC3)CC2)ccc1Nc1ncc2c(n1)N(C)c1ccccc1C(=O)N2C
- inhibition [1]: 100%
- inhibition [2]: 97%
- residual activity [3]: 81%
- inhibition [4]: 89%
- inhibition [5]: 97%
- inhibition [6]: 100%
- inhibition [7]: 17%
- inhibition [8]: 100%

SMILES: CCOc1cc(C(=O)N2CCC(N3CCN(C)CC3)CC2)ccc1Nc1ncc2c(n1)N(C1CCCC1)c1ccccc1C(=O)N2C
- inhibition [9]: inactive
